Data set [1] concerns Mus musculus. As to the kind of experiment: Anticonvulsant activity against maximal electroshock-induced seizure in Albino mouse at 300 mg/kg, ip after 0.5 hrs. The format is functional, organism-based. More on the design: dose 300 mg/kg. For orientation: In the maximal electroshock model the usual endpoint is tonic extension of the hind limbs.
In data set [2] the test system is Mus musculus. As to the kind of experiment: Anticonvulsant activity against maximal electroshock-induced seizure in Albino mouse at 300 mg/kg, ip after 4 hrs. More on the design: dose 300 mg/kg. The format is functional, organism-based.
Data set [3] deals with Mus musculus. As to the kind of experiment: Anticonvulsant activity against pentylenetetrazole-induced seizures in Albino mouse at 300 mg/kg, ip after 0.5 hrs. In kind it is functional, organism-based. On the set-up: dose 300 mg/kg.
For data set [4], the system named is Mus musculus. As to the kind of experiment: Anticonvulsant activity against pentylenetetrazole-induced seizures in Albino mouse at 300 mg/kg, ip after 4 hrs. The format is functional, organism-based. On the set-up: dose 300 mg/kg.
The subject of data set [5] is Mus musculus. Kind of data set: Neurotoxicity in Albino mouse at 300 mg/kg, ip after 0.5 hrs by rotarod test. In kind it is toxicity, organism-based. The settings on record: in vivo. More on the design: dose 300 mg/kg, route intraperitoneal.
Data set [6] relates to Mus musculus. Kind of data set: Neurotoxicity in Albino mouse at 300 mg/kg, ip after 4 hrs by rotarod test. The format is toxicity, organism-based. More on the design: dose 300 mg/kg, route intraperitoneal. The settings on record: in vivo.
Data set [7] has as its system Mus musculus. Kind of data set: Anticonvulsant activity against maximal electroshock-induced seizure in Albino mouse at 30 mg/kg, ip after 4 hrs. On the set-up: dose 30 mg/kg. The format is functional, organism-based.
The test system of data set [8] is Rattus norvegicus. As to the kind of experiment: Anticonvulsant activity against maximal electroshock-induced seizure in rat at 30 mg/kg, po upto 4 hrs. More on the design: dose 30 mg/kg. In kind it is functional, organism-based.
The test system of data set [9] is Rattus norvegicus. As to the kind of experiment: Anticonvulsant activity against maximal electroshock-induced seizure in rat at 30 mg/kg, po after 0.25 hrs. On the set-up: dose 30 mg/kg. In kind it is functional, organism-based.
Data set [10] concerns Rattus norvegicus. Kind of data set: Anticonvulsant activity against maximal electroshock-induced seizure in rat at 30 mg/kg, po after 0.5 hrs. The format is functional, organism-based. On the set-up: dose 30 mg/kg.
Data set [11] deals with Rattus norvegicus. As to the kind of experiment: Anticonvulsant activity against maximal electroshock-induced seizure in rat at 30 mg/kg, po after 1 hr. In kind it is functional, organism-based. On the set-up: dose 30 mg/kg.
Data set [12] concerns Rattus norvegicus. As to the kind of experiment: Toxicity in rat at 30 mg/kg upto 4 hrs. On the set-up: dose 30 mg/kg. The settings on record: in vivo. In kind it is organism-based.
Data set [13] has as its system Mus musculus. Kind of data set: Anticonvulsant activity against maximal electroshock-induced seizure in Albino mouse at 100 mg/kg, ip after 4 hrs. The format is organism-based. On the set-up: dose 100 mg/kg, route intraperitoneal. The settings on record: in vivo.
For data set [14], the system named is Mus musculus. Kind of data set: Anticonvulsant activity against maximal electroshock-induced seizure in Albino mouse at 100 mg/kg, ip after 0.5 hrs. The format is organism-based. The settings on record: in vivo. On the set-up: dose 100 mg/kg, route intraperitoneal.
In data set [15] the test system is Mus musculus. Kind of data set: Anticonvulsant activity against maximal electroshock-induced seizure in Albino mouse at 30 mg/kg, ip after 0.5 hrs. In kind it is functional, organism-based. On the set-up: dose 30 mg/kg.
The test system of data set [16] is Mus musculus. Kind of data set: Anticonvulsant activity against pentylenetetrazole-induced seizures in Albino mouse at 100 mg/kg, ip after 0.5 hrs. In kind it is functional, organism-based. More on the design: dose 100 mg/kg.
In data set [17] the test system is Mus musculus. As to the kind of experiment: Neurotoxicity in Albino mouse at 100 mg/kg, ip after 0.5 hrs by rotarod test. On the set-up: dose 100 mg/kg, route intraperitoneal. The settings on record: in vivo. The format is toxicity, organism-based.
Data set [18] deals with Mus musculus. As to the kind of experiment: Neurotoxicity in Albino mouse at 100 mg/kg, ip after 4 hrs by rotarod test. The format is toxicity, organism-based. On the set-up: dose 100 mg/kg, route intraperitoneal. As to conditions: in vivo.

Active and inactive are the calls of the source. The rule behind the calls is not given here.

Turning to `CNC(=S)Nc1ccc(S(=O)(=O)Nc2nc3ccc(F)cc3s2)cc1`, in the data set with Mus musculus [1], the result was Active. Besides, the result in the data set with Mus musculus [2], in the data set with Mus musculus [3] and in the data set on Mus musculus [4] was inactive. Moreover, the Activity entry with Mus musculus [5] and in the data set with Mus musculus [6] was “Non-toxic” each time.

For `CCNC(=S)Nc1ccc(S(=O)(=O)Nc2nc3ccc(F)cc3s2)cc1`, the outcome with Mus musculus [1] and with Mus musculus [3] was Active. In addition, the outcome in the data set on Mus musculus [2] and in the data set on Mus musculus [4] was inactive. Also, the Activity entry in the data set with Mus musculus [5] and in the data set on Mus musculus [6] was “Non-toxic” each time.

As for `CNC(=S)Nc1ccc(S(=O)(=O)Nc2ccc(Br)cc2)cc1`, the result in the data set with Mus musculus [1] and with Mus musculus [3] was Active. For the same compound, in the data set with Mus musculus [4], the outcome was inactive. The Activity entry with Mus musculus [5] is “Toxic”; in the data set with Mus musculus [6], “Non-toxic”.

With `CCNC(=S)Nc1ccc(S(=O)(=O)Nc2nc3ccc(Cl)cc3s2)cc1`, the result with Mus musculus [1], in the data set on Mus musculus [3], in the data set on Rattus norvegicus [9], in the data set on Rattus norvegicus [10] and in the data set with Rattus norvegicus [11] was inactive. The result in the data set with Mus musculus [7], with Mus musculus [4] and with Rattus norvegicus [8] was Active. In addition, the Activity entry in the data set on Mus musculus [5] was “Non-toxic”; with Mus musculus [6], “Toxic”; in the data set with Rattus norvegicus [12], “Non-toxic”.

Regarding `CNC(=S)Nc1ccc(S(=O)(=O)Nc2nc3ccc(Cl)cc3s2)cc1`, the result with Mus musculus [1] and in the data set on Mus musculus [3] was inactive. Also, the Activity result is on record as “Active” in the data set on Mus musculus [13], “Non-toxic” in the data set on Mus musculus [5], “Toxic” with Mus musculus [6] and “Non-toxic” in the data set on Rattus norvegicus [12]. The result with Mus musculus [4] and in the data set with Rattus norvegicus [8] was Active.

As for `Cc1ccc(NC(=S)Nc2ccc(S(=O)(=O)Nc3ccc(C)cc3)cc2)cc1`, the outcome in the data set with Mus musculus [1], in the data set with Mus musculus [2] and in the data set on Mus musculus [3] was Active. For the same compound, in the data set with Mus musculus [4], the result was inactive. In addition, the Activity entry with Mus musculus [5] is given as “Toxic”; with Mus musculus [6], “Non-toxic”.

Consider `Cc1ccc(NC(=S)Nc2ccc(S(=O)(=O)Nc3ccc(Cl)cc3)cc2)cc1`, for which the Activity result was “Active” in the data set with Mus musculus [14], “Toxic” with Mus musculus [5] and “Toxic” with Mus musculus [6]. The outcome in the data set on Mus musculus [2] and in the data set on Mus musculus [3] was Active.

For `CNC(=S)Nc1ccc(S(=O)(=O)Nc2ccc(Cl)cc2)cc1`, the result with Mus musculus [1], in the data set on Mus musculus [2] and with Mus musculus [3] was Active. For the same compound, the Activity result in the data set with Mus musculus [5] and in the data set with Mus musculus [6] was “Toxic” in each case.

In the case of `CCC1(C)CC(=O)NC1=O` (stereo not given) [ETHOSUXIMIDE], the outcome in the data set with Mus musculus [1], in the data set on Mus musculus [2] and in the data set with Mus musculus [4] was inactive. The result in the data set on Mus musculus [3] was Active. The Activity entry with Mus musculus [5] and in the data set on Mus musculus [6] was “Non-toxic” each time.

`CNC(=S)Nc1ccc(S(=O)(=O)Nc2nc3ccc(OC)cc3s2)cc1`: the outcome in the data set on Mus musculus [1] was Active. In addition, the result in the data set with Mus musculus [2], in the data set with Mus musculus [3] and with Mus musculus [4] was inactive. The Activity entry in the data set with Mus musculus [5] and with Mus musculus [6] was “Non-toxic” in each case.

For `Cc1ccc(NC(=S)Nc2ccc(S(=O)(=O)Nc3ccc(Br)cc3)cc2)cc1`, the Activity entry in the data set on Mus musculus [14] is “Active”; in the data set on Mus musculus [5], “Toxic”; in the data set with Mus musculus [6] it was “Toxic”. Besides, the result in the data set on Mus musculus [2] and in the data set with Mus musculus [3] was Active. In addition, the result with Mus musculus [4] was inactive.

Take `CCCC(CCC)C(=O)O` [VALPROIC ACID]: the result in the data set on Mus musculus [1], in the data set with Mus musculus [2] and with Mus musculus [4] was inactive. In addition, the outcome in the data set with Mus musculus [3] was Active. In addition, the Activity entry in the data set on Mus musculus [5] and in the data set with Mus musculus [6] was “Non-toxic” throughout.

With `NC(=O)N1c2ccccc2C=Cc2ccccc21` [CARBAMAZEPINE], the result with Mus musculus [15] and in the data set with Mus musculus [16] was Active. The result with Mus musculus [2] and in the data set with Mus musculus [4] was inactive. Moreover, the Activity entry in the data set on Mus musculus [17] and in the data set on Mus musculus [6] was “Toxic” throughout.

For the compound `O=C1NC(=O)C(c2ccccc2)(c2ccccc2)N1` [PHENYTOIN], the outcome in the data set on Mus musculus [15], in the data set on Mus musculus [7] and in the data set on Rattus norvegicus [10] was Active. The result in the data set on Mus musculus [3] and with Mus musculus [4] was inactive. Further, the Activity entry in the data set with Mus musculus [17] and in the data set on Mus musculus [18] was “Toxic” each time.

As to `CCNC(=S)Nc1ccc(S(=O)(=O)Nc2nc3ccc(OC)cc3s2)cc1`, the result in the data set with Mus musculus [1], in the data set on Mus musculus [2], in the data set with Mus musculus [3] and in the data set with Mus musculus [4] was inactive. The Activity result in the data set on Mus musculus [5] and with Mus musculus [6] was “Non-toxic” in each case.
